Laboratory results as given in ChEMBL document CHEMBL1201862, “PubChem BioAssay data set” (2004).
Where “and” joins values, the source holds several entries; their conditions need not be identical. Identical values can stand only once.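 Following 48 hours of exposure in 96-well plates, responses at five concentrations were used to interpolate endpoints linearly. The concentration for 50% growth inhibition is given as GI50.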 Calls of active or inactive are those of the source. Cut-off read from the data, not from the text of the source: active = GI50 up to about 1.1 µM and inactive = higher.

Legend:
Assay in all cases: NCI tumour cell line growth inhibition, 48 h
[1] = test system: SR
[2] = test system: HCT-15
[3] = test system: Malme-3M
[4] = test system: IGROV-1
[5] = test system: OVCAR-5
[6] = test system: PC-3
[7] = test system: MCF7
[8] = test system: SF-268
[9] = test system: UACC-257
[10] = test system: DU-145
[11] = test system: HL-60
[12] = test system: M14
[13] = test system: SK-MEL-5
[14] = test system: U-251
[15] = test system: Hs-578T
[16] = test system: A498
[17] = test system: MDA-MB-231
[18] = test system: RPMI-8226
[19] = test system: BT-549

Compound	GI50 [1]	GI50 [2]	GI50 [3]	GI50 [4]	GI50 [5]	GI50 [6]	GI50 [7]	GI50 [8]	GI50 [9]	GI50 [10]	GI50 [11]	GI50 [12]	GI50 [13]	GI50 [14]	GI50 [15]	GI50 [16]	GI50 [17]	GI50 [18]	GI50 [19]
Cc1ccc2nc3ccccc3c(C3C4C(=O)N(c5ccc(Br)cc5Cl)C(=O)C4ON3C(C(N)=O)c3ccccc3)c2c1 (configuration not stated)	7.26 µM (inactive)	5.77 µM	> 25 µM (inactive)	16.7 µM (inactive)	> 25 µM (inactive)	> 25 µM (inactive)	11.6 µM (inactive)	> 25 µM (inactive)	15.6 µM (inactive)	> 25 µM (inactive)	> 25 µM (inactive)	11.6 µM (inactive)	19.1 µM (inactive)	> 25 µM (inactive)	> 25 µM (inactive)	> 25 µM (inactive)	> 25 µM (inactive)	–	–
Nc1nc(Nc2ccccc2)c2[nH]cnc2n1	–	52 µM	30.6 µM (inactive)	32 µM (inactive)	–	> 100 µM (inactive)	> 100 µM (inactive)	–	> 100 µM (inactive)	77.3 µM (inactive)	37.3 µM (inactive)	> 100 µM (inactive)	86.5 µM (inactive)	> 100 µM (inactive)	–	20.3 µM (inactive)	> 100 µM (inactive)	53.7 µM (inactive)	–
C1C2CC3CC1CC(c1nn4c(C56CC7CC(CC(C7)C5)C6)nnc4s1)(C2)C3	> 100 µM (inactive)	> 100 µM	> 100 µM (inactive)	> 100 µM (inactive)	> 100 µM (inactive)	> 100 µM (inactive)	–	> 100 µM (inactive)	–	> 100 µM (inactive)	> 100 µM (inactive)	> 100 µM (inactive)	> 100 µM (inactive)	> 100 µM (inactive)	> 100 µM (inactive)	> 100 µM (inactive)	> 100 µM (inactive)	> 100 µM (inactive)	–
COC1OC(COC(=O)NCCCCC(=O)C(F)(F)C(F)(F)C(F)(F)C(F)(F)C(F)(F)C(F)(F)C(F)(F)F)C(O)C(O)C1O (configuration not stated)	30.3 µM (inactive) and 42.9 µM (inactive)	18.5 µM and 19.4 µM	22.8 µM (inactive) and 20.1 µM (inactive)	16.5 µM (inactive) and 14.3 µM (inactive)	17.8 µM (inactive) and 17.5 µM (inactive)	12.9 µM (inactive) and 13.6 µM (inactive)	17.6 µM (inactive) and 18.4 µM (inactive)	15.7 µM (inactive) and 18.2 µM (inactive)	16.9 µM (inactive) and 16.6 µM (inactive)	–	–	14.8 µM (inactive) and 16 µM (inactive)	13.1 µM (inactive) and 12 µM (inactive)	19.3 µM (inactive) and 11.9 µM (inactive)	15.2 µM (inactive) and 17.7 µM (inactive)	–	23.1 µM (inactive) and 23.9 µM (inactive)	28.9 µM (inactive) and 29.9 µM (inactive)	17.6 µM (inactive) and 17.4 µM (inactive)
COCc1cc2c(cc1/C=C/[N+](=O)[O-])OCO2	53.3 µM (inactive)	19.7 µM	–	22.8 µM (inactive)	16.4 µM (inactive)	12.1 µM (inactive)	29.7 µM (inactive)	20.7 µM (inactive)	16.8 µM (inactive)	19.4 µM (inactive)	23.4 µM (inactive)	16.7 µM (inactive)	19.4 µM (inactive)	17.7 µM (inactive)	19.5 µM (inactive)	17 µM (inactive)	20.4 µM (inactive)	76 µM (inactive)	–
O=C(O)CNc1ncc2c(n1)-c1ccccc1OC2	> 100 µM (inactive)	> 100 µM	> 100 µM (inactive)	> 100 µM (inactive)	> 100 µM (inactive)	> 100 µM (inactive)	> 100 µM (inactive)	> 100 µM (inactive)	> 100 µM (inactive)	> 100 µM (inactive)	64.3 µM (inactive)	> 100 µM (inactive)	> 100 µM (inactive)	> 100 µM (inactive)	> 100 µM (inactive)	–	> 100 µM (inactive)	> 100 µM (inactive)	–
COC(=O)/C=C\n1c(C)cc(=O)[nH]c1=O	> 100 µM (inactive)	> 100 µM	> 100 µM (inactive)	> 100 µM (inactive)	> 100 µM (inactive)	> 100 µM (inactive)	17.1 µM (inactive)	> 100 µM (inactive)	> 100 µM (inactive)	–	–	> 100 µM (inactive)	> 100 µM (inactive)	> 100 µM (inactive)	> 100 µM (inactive)	> 100 µM (inactive)	–	> 100 µM (inactive)	> 100 µM (inactive)
C#Cc1cccc(N2C(=O)CC(=P(c3ccccc3)(c3ccccc3)c3ccccc3)C2=O)c1	39.4 µM (inactive)	–	80 µM (inactive)	–	57 µM (inactive)	–	–	62.1 µM (inactive)	51.4 µM (inactive)	–	15.1 µM (inactive)	47.6 µM (inactive)	25.6 µM (inactive)	71.8 µM (inactive)	–	> 100 µM (inactive)	–	6.4 µM (inactive)	–
c1cc(C2=NCCO2)c2ccsc2c1	> 100 µM (inactive)	> 100 µM	> 100 µM (inactive)	> 100 µM (inactive)	> 100 µM (inactive)	> 100 µM (inactive)	> 100 µM (inactive)	> 100 µM (inactive)	> 100 µM (inactive)	> 100 µM (inactive)	> 100 µM (inactive)	> 100 µM (inactive)	> 100 µM (inactive)	> 100 µM (inactive)	22.7 µM (inactive)	> 100 µM (inactive)	> 100 µM (inactive)	> 100 µM (inactive)	–
COCOCCCCCO[Si](C)(C)C(C)(C)C	18.2 µM (inactive)	17.7 µM	18.2 µM (inactive)	32.6 µM (inactive)	16.9 µM (inactive)	–	–	5.19 µM (inactive)	16.5 µM (inactive)	–	7.1 µM (inactive)	19 µM (inactive)	16.5 µM (inactive)	15.8 µM (inactive)	–	29.4 µM (inactive)	–	16.5 µM (inactive)	–
Oc1ccc(/C=N/NC(=S)Nc2cccnc2)nc1	0.134 µM (active)	5.27 µM	2.07 µM (inactive)	14.7 µM (inactive)	40.3 µM (inactive)	> 22 µM (inactive)	7.89 µM (inactive)	1.39 µM (inactive)	13.7 µM (inactive)	3.72 µM (inactive)	3.76 µM (inactive)	6.1 µM (inactive)	9.59 µM (inactive)	6.22 µM (inactive)	–	33.7 µM (inactive)	2.32 µM (inactive)	16.7 µM (inactive)	–
CCOC(=O)c1cc(I)c(-c2cc(C)no2)n1C	–	49.9 µM	28.1 µM (inactive)	–	93.3 µM (inactive)	38.5 µM (inactive)	–	60.1 µM (inactive)	71.6 µM (inactive)	89.9 µM (inactive)	26.1 µM (inactive)	94 µM (inactive)	33.1 µM (inactive)	60.5 µM (inactive)	–	23.7 µM (inactive)	36 µM (inactive)	19.3 µM (inactive)	64.7 µM (inactive)
CO[P@]1(=O)O[C@@H](c2ccccc2)[C@H](O)[C@@]1(O)c1ccccc1	> 100 µM (inactive)	> 100 µM	> 100 µM (inactive)	> 100 µM (inactive)	> 100 µM (inactive)	> 100 µM (inactive)	> 100 µM (inactive)	–	> 100 µM (inactive)	> 100 µM (inactive)	> 100 µM (inactive)	> 100 µM (inactive)	> 100 µM (inactive)	> 100 µM (inactive)	–	> 100 µM (inactive)	> 100 µM (inactive)	–	> 100 µM (inactive)
Cc1cc(C23OC4COC(C)(C)OC4C2OC(C)(C)O3)nc2ccccc12 (configuration not stated)	72.8 µM (inactive)	> 100 µM	> 100 µM (inactive)	31.3 µM (inactive)	> 100 µM (inactive)	78.2 µM (inactive)	> 100 µM (inactive)	> 100 µM (inactive)	> 100 µM (inactive)	> 100 µM (inactive)	33.4 µM (inactive)	> 100 µM (inactive)	> 100 µM (inactive)	> 100 µM (inactive)	82.2 µM (inactive)	–	> 100 µM (inactive)	> 100 µM (inactive)	–
C[C@@H]1CC[C@@H](C)[C@](C)(CCc2ccoc2)C/C=C\C=C/1C(=O)O	> 50 µM (inactive)	> 50 µM	> 50 µM (inactive)	> 50 µM (inactive)	> 50 µM (inactive)	> 50 µM (inactive)	> 50 µM (inactive)	–	> 50 µM (inactive)	–	15.3 µM (inactive)	> 50 µM (inactive)	> 50 µM (inactive)	> 50 µM (inactive)	> 50 µM (inactive)	> 50 µM (inactive)	> 50 µM (inactive)	–	> 50 µM (inactive)
Cc1cc(C)n2c(nc3ccccc32)c1C#N	–	> 100 µM	> 100 µM (inactive)	> 100 µM (inactive)	> 100 µM (inactive)	> 100 µM (inactive)	> 100 µM (inactive)	–	> 100 µM (inactive)	> 100 µM (inactive)	> 100 µM (inactive)	> 100 µM (inactive)	55.7 µM (inactive)	> 100 µM (inactive)	–	> 100 µM (inactive)	69.2 µM (inactive)	–	> 100 µM (inactive)
Nc1ccc2nc(-c3cccc(C(F)(F)F)c3)cc(O)c2c1	25.1 µM (inactive)	34.8 µM	40.6 µM (inactive)	33.5 µM (inactive)	43.2 µM (inactive)	23.8 µM (inactive)	28.2 µM (inactive)	–	51.2 µM (inactive)	–	–	59.6 µM (inactive)	22.9 µM (inactive)	49.3 µM (inactive)	28.9 µM (inactive)	29.1 µM (inactive)	50.7 µM (inactive)	38.5 µM (inactive)	23.6 µM (inactive)
